Measured values as given in patent US12077503B2, “Substituted cyclic amides and their use as herbicides” (FMC CORPORATION, priority 2015, dated 2024).

How the values were obtained:
Type in all cases: in vivo
[1] = test system: giant foxtail (Setaria faberii); experiment: Test A postemergence; settings: Setaria faberi, post-emergence, 240 h, 125 g ai/ha, postemergence; visual injury after approximately 10 d; 0 to 100 scale (0 no effect, 100 complete control); read-out: Plant response rating, Foxtail, Giant
In short: (§1)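 Each rating is a visual injury score from 0 to 100 given about 10 d after treatment, judged against untreated controls kept alongside in the greenhouse. In loam soil–sand blend, seeds got a preemergence directed soil spray, while postemergence plants were 2 to 10 cm tall at spraying.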

[2] = test system: wheat (Triticum aestivum); experiment: Test A postemergence; settings: Triticum aestivum, post-emergence, 240 h, 125 g ai/ha, postemergence; visual injury after approximately 10 d; 0 to 100 scale (0 no effect, 100 complete control); read-out: Plant response rating, Wheat
In short: as §1

[3] = test system: barnyardgrass (Echinochloa crus-galli); experiment: Test A postemergence; settings: Echinochloa crus-galli, post-emergence, 240 h, 125 g ai/ha, postemergence; visual injury after approximately 10 d; 0 to 100 scale (0 no effect, 100 complete control); read-out: Plant response rating, Barnyardgrass
In short: as §1

[4] = test system: Galium (catchweed bedstraw, Galium aparine); experiment: Test A postemergence; settings: Galium, post-emergence, 240 h, 125 g ai/ha, postemergence; visual injury after approximately 10 d; 0 to 100 scale (0 no effect, 100 complete control); read-out: Plant response rating, Galium
In short: as §1

rice (Oryra sativa) = experiment: Test B flooded paddy test; settings: Oryza sativa, Flood, 250 g ai/ha; scale of 0 to 100 where 0 is no effect and 100 is complete control; read-out: Rice plant response rating
In short: (§2)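 Percent control, visually estimated after 13–15 d in the greenhouse on a 0–100 basis, compares treated pots with untreated ones; compound was put into paddy water 3 cm above the soil when plants had two leaves.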

[5] = test system: sedge, umbrella (small-flower umbrella sedge, Cyperus difformis); experiment: Test B flooded paddy test; settings: Cyperus difformis, Flood, 250 g ai/ha; scale of 0 to 100 where 0 is no effect and 100 is complete control; read-out: Sedge, Umbrella plant response rating
In short: as §2

[6] = test system: ducksalad (Heteranthera limosa); experiment: Test B flooded paddy test; settings: Heteranthera limosa, Flood, 250 g ai/ha; scale of 0 to 100 where 0 is no effect and 100 is complete control; read-out: Ducksalad plant response rating
In short: as §2

[7] = test system: barnyardgrass (Echinochloa crus-galli); experiment: Test B flooded paddy test; settings: Echinochloa crus-galli, Flood, 250 g ai/ha; scale of 0 to 100 where 0 is no effect and 100 is complete control; read-out: Barnyardgrass plant response rating
In short: as §2

[8] = test system: ragweed (common ragweed, Ambrosia elatior); experiment: Test A preemergence; settings: Ambrosia artemisiifolia, pre-emergence, 240 h, preemergence, read-out: Plant response rating, Ragweed; for pest or weed control at 125 g/ha: 125 g ai/ha, visual rating after approx. 10 d, 0 to 100 scale where 0 is no effect and 100 is complete control; for pest or weed control at 500 g/ha: 500 g ai/ha, 0 to 100 scale, 0 = no effect, 100 = complete control
In short: as §1

[9] = test system: giant foxtail (Setaria faberii); experiment: Test A preemergence; settings: Setaria faberi, pre-emergence, 240 h, preemergence, read-out: Plant response rating, Foxtail, Giant; for pest or weed control at 125 g/ha: 125 g ai/ha, visual rating after approx. 10 d, 0 to 100 scale where 0 is no effect and 100 is complete control; for pest or weed control at 500 g/ha: 500 g ai/ha, 0 to 100 scale, 0 = no effect, 100 = complete control
In short: as §1

[10] = test system: ryegrass, Italian (Italian ryegrass, Lolium multiflorum); experiment: Test A preemergence; settings: Lolium multiflorum, pre-emergence, 240 h, preemergence, read-out: Plant response rating, Ryegrass, Italian; for pest or weed control at 125 g/ha: 125 g ai/ha, visual rating after approx. 10 d, 0 to 100 scale where 0 is no effect and 100 is complete control; for pest or weed control at 500 g/ha: 500 g ai/ha, 0 to 100 scale, 0 = no effect, 100 = complete control
In short: as §1

[11] = test system: pigweed (Amaranthus retroflexus); experiment: Test A preemergence; settings: Amaranthus retroflexus, pre-emergence, 240 h, preemergence, read-out: Plant response rating, Pigweed; for pest or weed control at 125 g/ha: 125 g ai/ha, visual rating after approx. 10 d, 0 to 100 scale where 0 is no effect and 100 is complete control; for pest or weed control at 500 g/ha: 500 g ai/ha, 0 to 100 scale, 0 = no effect, 100 = complete control
[12] = test system: barnyardgrass (Echinochloa crus-galli); experiment: Test A preemergence; settings: Echinochloa crus-galli, pre-emergence, 240 h, preemergence, read-out: Plant response rating, Barnyardgrass; for pest or weed control at 125 g/ha: 125 g ai/ha, visual rating after approx. 10 d, 0 to 100 scale where 0 is no effect and 100 is complete control; for pest or weed control at 500 g/ha: 500 g ai/ha, 0 to 100 scale, 0 = no effect, 100 = complete control
In short: as §1

Kochia (Kochia scoparia) = experiment: Test A preemergence; settings: Bassia scoparia, pre-emergence, 240 h, preemergence, read-out: Plant response rating, Kochia; for pest or weed control at 125 g/ha: 125 g ai/ha, visual rating after approx. 10 d, 0 to 100 scale where 0 is no effect and 100 is complete control; for pest or weed control at 500 g/ha: 500 g ai/ha, 0 to 100 scale, 0 = no effect, 100 = complete control
In short: as §1

## CN1C[C@H](c2ccc3c(c2)CCC3)[C@@H](C(=O)Nc2ccccc2S(C)(=O)=O)C1=O [Compound 744]
[1]
  pest or weed control at 125 g/ha: 80%
[2]
  plant injury at 125 g/ha: 50%
[3]
  pest or weed control at 125 g/ha: 60%
[4]
  pest or weed control at 125 g/ha: 30%
Rice (Oryra sativa)
  pest or weed control at 250 g/ha: 0%
[5]
  pest or weed control at 250 g/ha: 0%
[6]
  pest or weed control at 250 g/ha: 85%
[7]
  pest or weed control at 250 g/ha: 60%
[8]
  pest or weed control at 125 g/ha: 0%
  pest or weed control at 500 g/ha: 50%
[9]
  pest or weed control at 125 g/ha: 90%
  pest or weed control at 500 g/ha: 90%
[10]
  pest or weed control at 125 g/ha: 0%
  pest or weed control at 500 g/ha: 80%
[11]
  pest or weed control at 125 g/ha: 20%
  pest or weed control at 500 g/ha: 50%
[12]
  pest or weed control at 125 g/ha: 20%
  pest or weed control at 500 g/ha: 90%
Kochia (Kochia scoparia)
  pest or weed control at 125 g/ha: 60%
  pest or weed control at 500 g/ha: 90%

## CN1C[C@H](c2ccc(C(F)(F)F)cc2)[C@@H](C(=O)Nc2ccc(F)c(F)c2F)C1=O [Compound 745]
[1]
  pest or weed control at 125 g/ha: 90%
[2]
  plant injury at 125 g/ha: 60%
[3]
  pest or weed control at 125 g/ha: 90%
[4]
  pest or weed control at 125 g/ha: 60%
Rice (Oryra sativa)
  pest or weed control at 250 g/ha: 40%
[5]
  pest or weed control at 250 g/ha: 0%
[6]
  pest or weed control at 250 g/ha: 100%
[7]
  pest or weed control at 250 g/ha: 70%
[8]
  pest or weed control at 125 g/ha: 80%
  pest or weed control at 500 g/ha: 80%
[9]
  pest or weed control at 125 g/ha: 90%
  pest or weed control at 500 g/ha: 90%
[10]
  pest or weed control at 125 g/ha: 70%
  pest or weed control at 500 g/ha: 90%
[11]
  pest or weed control at 125 g/ha: 80%
  pest or weed control at 500 g/ha: 90%
[12]
  pest or weed control at 125 g/ha: 90%
  pest or weed control at 500 g/ha: 90%
Kochia (Kochia scoparia)
  pest or weed control at 125 g/ha: 90%
  pest or weed control at 500 g/ha: 90%

## CS(=O)(=O)c1ccccc1NC(=O)[C@H]1C(=O)NC[C@@H]1c1cccc2c1OC(F)(F)O2 [Compound 753]
[1]
  pest or weed control at 125 g/ha: 0%
[2]
  plant injury at 125 g/ha: 0%
[3]
  pest or weed control at 125 g/ha: 50%
[4]
  pest or weed control at 125 g/ha: 0%
Rice (Oryra sativa)
  pest or weed control at 250 g/ha: 0%
[5]
  pest or weed control at 250 g/ha: 0%
[6]
  pest or weed control at 250 g/ha: 60%
[7]
  pest or weed control at 250 g/ha: 0%
[8]
  pest or weed control at 125 g/ha: 0%
  pest or weed control at 500 g/ha: 0%
[9]
  pest or weed control at 125 g/ha: 70%
  pest or weed control at 500 g/ha: 90%
[10]
  pest or weed control at 125 g/ha: 0%
  pest or weed control at 500 g/ha: 20%
[11]
  pest or weed control at 125 g/ha: 0%
  pest or weed control at 500 g/ha: 0%
[12]
  pest or weed control at 125 g/ha: 70%
  pest or weed control at 500 g/ha: 100%
Kochia (Kochia scoparia)
  pest or weed control at 125 g/ha: 20%
  pest or weed control at 500 g/ha: 20%

## Cc1ccc([C@H]2CNC(=S)[C@@H]2C(=O)Nc2cccc(F)c2C)cc1C [Compound 764]
[1]
  pest or weed control at 125 g/ha: 0%
[2]
  plant injury at 125 g/ha: 0%
[3]
  pest or weed control at 125 g/ha: 80%
[4]
  pest or weed control at 125 g/ha: 0%
Rice (Oryra sativa)
  pest or weed control at 250 g/ha: 0%
[5]
  pest or weed control at 250 g/ha: 0%
[6]
  pest or weed control at 250 g/ha: 90%
[7]
  pest or weed control at 250 g/ha: 50%
[8]
  pest or weed control at 125 g/ha: 0%
  pest or weed control at 500 g/ha: 0%
[9]
  pest or weed control at 125 g/ha: 70%
  pest or weed control at 500 g/ha: 80%
[10]
  pest or weed control at 125 g/ha: 0%
[11]
  pest or weed control at 125 g/ha: 0%
  pest or weed control at 500 g/ha: 0%
[12]
  pest or weed control at 125 g/ha: 100%
  pest or weed control at 500 g/ha: 100%
Kochia (Kochia scoparia)
  pest or weed control at 125 g/ha: 0%
  pest or weed control at 500 g/ha: 0%

## CSc1ccccc1NC(=O)[C@H]1C(=S)NC[C@@H]1c1ccc(C)c(C)c1 [Compound 766]
[1]
  pest or weed control at 125 g/ha: 0%
[2]
  plant injury at 125 g/ha: 0%
[3]
  pest or weed control at 125 g/ha: 10%
[4]
  pest or weed control at 125 g/ha: 0%
Rice (Oryra sativa)
  pest or weed control at 250 g/ha: 0%
[5]
  pest or weed control at 250 g/ha: 60%
[6]
  pest or weed control at 250 g/ha: 85%
[7]
  pest or weed control at 250 g/ha: 0%
[8]
  pest or weed control at 125 g/ha: 0%
  pest or weed control at 500 g/ha: 0%
[9]
  pest or weed control at 125 g/ha: 0%
  pest or weed control at 500 g/ha: 40%
[10]
  pest or weed control at 125 g/ha: 0%
[11]
  pest or weed control at 125 g/ha: 0%
  pest or weed control at 500 g/ha: 0%
[12]
  pest or weed control at 125 g/ha: 70%
  pest or weed control at 500 g/ha: 90%
Kochia (Kochia scoparia)
  pest or weed control at 125 g/ha: 0%
  pest or weed control at 500 g/ha: 0%

## COc1cc([C@H]2CN(C)C(=O)[C@@H]2C(=O)Nc2ccccc2F)ccc1C(F)(F)F [Compound 768]
[1]
  pest or weed control at 125 g/ha: 80%
[2]
  plant injury at 125 g/ha: 0%
[3]
  pest or weed control at 125 g/ha: 70%
[4]
  pest or weed control at 125 g/ha: 30%
Rice (Oryra sativa)
  pest or weed control at 250 g/ha: 15%
[5]
  pest or weed control at 250 g/ha: 0%
[6]
  pest or weed control at 250 g/ha: 85%
[7]
  pest or weed control at 250 g/ha: 60%
[8]
  pest or weed control at 125 g/ha: 0%
  pest or weed control at 500 g/ha: 0%
[9]
  pest or weed control at 125 g/ha: 90%
  pest or weed control at 500 g/ha: 90%
[10]
  pest or weed control at 125 g/ha: 0%
[11]
  pest or weed control at 125 g/ha: 0%
  pest or weed control at 500 g/ha: 20%
[12]
  pest or weed control at 125 g/ha: 90%
  pest or weed control at 500 g/ha: 90%
Kochia (Kochia scoparia)
  pest or weed control at 125 g/ha: 60%
  pest or weed control at 500 g/ha: 70%
